# Laboratory results reported in patent US9951056B2, “Substituted nicotinamide inhibitors of BTK and their preparation and use in the treatment of cancer, inflammation and autoimmune disease” (BEIJING INNOCARE PHARMA TECH CO., LTD., priority 2013, dated 2018).
# Target: BTK (Homo sapiens (Human), UniProt Q06187)
# Assay: ADP-Glo kinase biochemical assay, IC50 determination of BTK inhibitors
# Conditions: ADP-Glo, ATP 50 uM; values given as bins
# Procedure: Biological Properties: IC50 Determination of BTK Inhibitors in ADP-Glo Kinase Biochemical Assay
# Those skilled in the art will appreciate that a variety of assay formats may be used to determine the activity of the compounds described herein.
# ADP-Glo™ Kinase Assay (Cat. V9102, 10000 Tests), Components: • 1×50 ml ADP-Glo™ Reagent, • 1×100 ml Kinase Detection Buffer, • 1× Kinase Detection Substrate (Lyophilized), • 1×5 ml Ultra Pure ATP, 10 mM • 1×5 ml ADP, 10 mM
# • Enzyme concentration: 8 ng/5 ul. • ATP concentration: 50 uM • Substrate (peptide) concentration: 0.2 mg/ml. • Reaction buffer composition: 40 mM Tris-HCl pH7.5, 10 mM MgCl2, 2 mM MnCl2, 0.1 mg/mL BSA, 0.05 mM DTT. • Test compound concentration: DMSO≤0.5%. Methods: Compound Dosage Gradient Solution Preparation: […]
# 1× and 2× assay buffer were made at first. BTK kinase was diluted with 1× assay buffer but substrate was diluted with 2× assay buffer. 1 ul of diluted compound was transferred into 384-well assay plate, and then 2.0 ul of enzyme solution was added, and spun at 2000 rpm for 1 min. This mixture was incubated at 24° C. for 30 mins. 2 ul of peptide substrate/ATP mixture was added into the assay plate to start the reaction. The mixture was mixed thoroughly and then the 384-well plate was spun and incubated at 24° C. for 60 mins. 5.0 ul of ADP-Glo Reagent was added to stop the kinase activity and deplete the ATP unconsumed, and the plate was mixed thoroughly and incubated at 24° C. for 40 min. Then, 10.0 ul of Kinase Detection reagent was added, and the plate was centrifuged and then kept at 24° C. for 30 min. The luminescence signal was read on Envision.
# IC50 values of compounds were calculated from a 4-parameter fit using Equation (2): Y=Bottom+(TOP-Bottom)/(1+((C/X)^hillslope)) Equation (2)
# In Equation 2, Y represents % inhibition, X is the log value of the test compound concentration. IC50 was the concentration of compound where half of maximal inhibition was achieved.
# All data was analyzed with IDBS XLfit5 software (ID Business Solutions Ltd., UK).
# BTK, sequence (Q06187 whole entry): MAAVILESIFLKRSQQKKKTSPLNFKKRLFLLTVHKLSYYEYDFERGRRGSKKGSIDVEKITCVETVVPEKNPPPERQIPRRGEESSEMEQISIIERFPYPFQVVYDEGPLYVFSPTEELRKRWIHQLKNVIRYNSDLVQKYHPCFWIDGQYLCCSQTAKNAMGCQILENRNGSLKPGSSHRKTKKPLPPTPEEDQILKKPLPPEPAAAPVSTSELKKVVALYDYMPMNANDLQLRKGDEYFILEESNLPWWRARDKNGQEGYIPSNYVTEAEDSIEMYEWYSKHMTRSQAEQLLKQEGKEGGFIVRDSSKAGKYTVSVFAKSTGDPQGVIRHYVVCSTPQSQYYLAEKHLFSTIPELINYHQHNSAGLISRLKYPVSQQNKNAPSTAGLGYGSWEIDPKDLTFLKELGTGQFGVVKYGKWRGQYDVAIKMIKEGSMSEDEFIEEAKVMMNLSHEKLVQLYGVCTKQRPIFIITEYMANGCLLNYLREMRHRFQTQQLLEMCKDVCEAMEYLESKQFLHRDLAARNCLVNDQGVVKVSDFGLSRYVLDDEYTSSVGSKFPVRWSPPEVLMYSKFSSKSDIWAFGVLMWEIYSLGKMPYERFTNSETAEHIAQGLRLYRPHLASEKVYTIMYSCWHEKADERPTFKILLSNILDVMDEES
row,Compound,IC50 [µM]
1,"C=CC(=O)N1CCN(c2ccc(C(N)=O)c(-c3ccc(C)c(OC)c3)n2)CC1 [Example 29, 6-(4-acryloylpiperazin-1-yl)-2-(3-methoxy-4-methylphenyl)nicotinamide]",< 0.5
2,"C=CC(=O)N1CCCC(c2nc(-c3ccc(Oc4ccccc4)cc3)c(C(N)=O)o2)C1 (stereo not shown) [Example 42, 2-(1-acryloylpiperidin-3-yl)-4-(4-phenoxyphenyl)oxazole-5-carboxamide]",< 0.5
3,"C=CC(=O)Nc1cccc(-n2cc(C(N)=O)c(-c3ccc(Oc4ccccc4)cc3)n2)c1 [Example 18, 1-(3-acrylamidophenyl)-3-(4-phenoxyphenyl)-1H-pyrazole-4-carboxamide]",< 0.5
4,"C=CC(=O)N1CCN(c2ccc(C(N)=O)c(-c3ccc(Cl)cc3)n2)CC1 [Example 33, 6-(4-acryloylpiperazin-1-yl)-2-(4-chlorophenyl)nicotinamide]",≥ 1
5,"C=CC(=O)N1CCC(c2nc(-c3ccc(Oc4ccccc4)cc3)c(C(N)=O)o2)CC1 [Example 46, 2-(1-acryloylpiperidin-4-yl)-4-(4-phenoxyphenyl)oxazole-5-carboxamide]",< 0.5
6,"C=CC(=O)N1CC[C@H](n2cc(C(N)=O)c(-c3ccc(Oc4ccccc4)cc3)n2)C1 [Example 19, (S)-1-(1-acryloylpyrrolidin-3-yl)-3-(4-phenoxyphenyl)-1H-pyrazole-4-carboxamide]",< 0.5
7,"C=CC(=O)N1CCN(c2ccc(C(N)=O)c(-c3ccc(Oc4cccc(F)c4)cc3)n2)CC1 [Example 35, 6-(4-acryloylpiperazin-1-yl)-2-(4-(3-fluorophenoxy)phenyl)nicotinamide]",< 0.5
8,"C=CC(=O)N1CCN(c2ccc(C(N)=O)c(-c3ccc(Oc4ccccn4)cc3)n2)CC1 [Example 32, 6-(4-acryloylpiperazin-1-yl)-2-(4-(pyridin-2-yloxy)phenyl)nicotinamide]",< 0.5
9,"N#C/C(=C\C1CC1)C(=O)N1CC(n2cc(C(N)=O)c(-c3ccc(Oc4ccccc4)cc3)n2)C1 [Example 53, (E)-1-(1-(2-cyano-3-cyclopropylacryloyl)azetidin-3-yl)-3-(4-phenoxyphenyl)-1H-pyrazole-4-carboxamide]",≥ 1
10,"C=CC(=O)N1CCCC(c2nc(C(N)=O)c(-c3ccc(Oc4ccccc4)cc3)s2)C1 (stereo not shown) [Example 45, 2-(1-acryloylpiperidin-3-yl)-5-(4-phenoxyphenyl)thiazole-4-carboxamide]",< 0.5
11,"C=CC(=O)N1CCC(c2ncc(C(N)=O)c(-c3ccc(Oc4ccccc4)cc3)n2)C1 (stereo not shown) [Example 22, 2-(1-acryloylpyrrolidin-3-yl)-4-(4-phenoxyphenyl)pyrimidine-5-carboxamide]",< 0.5
12,"C=CC(=O)Nc1cccc(-c2ccc(C(N)=O)c(-c3ccc(Oc4ccccc4)cc3)n2)c1 [Example 1, 6-(3-acrylamidophenyl)-2-(4-phenoxyphenyl)nicotinamide]",< 0.5
13,"C=CC(=O)N1CCC(c2nc(-c3ccc(Oc4ccccc4)cc3)c(C(N)=O)o2)C1 (stereo not shown) [Example 43, 2-(1-acryloylpyrrolidin-3-yl)-4-(4-phenoxyphenyl)oxazole-5-carboxamide]",< 0.5
14,"C=CC(=O)N1CCC(c2ccc(C(N)=O)c(-c3ccc(Oc4ccccc4)cc3)n2)C1 (stereo not shown) [Example 23, 6-(1-acryloylpyrrolidin-3-yl)-2-(4-phenoxyphenyl)pyridine-3-carboxamide]",< 0.5
15,"C=CC(=O)N1CCC(c2ncc(C(N)=O)c(-c3ccc(Oc4ccccc4)cc3)n2)CC1 [Example 21, 2-(1-acryloylpiperidin-4-yl)-4-(4-phenoxyphenyl)pyrimidine-5-carboxamide]",< 0.5
16,"C=CC(=O)N1CCN(c2ccc(C(=O)O)c(-c3ccc(Oc4ccccc4)cc3)n2)CC1 [Example 26, 6-(4-acryloylpiperazin-1-yl)-2-(4-phenoxyphenyl)pyridine-3-carboxylic acid]",< 0.5
17,"C=CC(=O)N1CC[C@@H](n2cc(C(N)=O)c(-c3ccc(Oc4ccccc4)cc3)n2)C1 [Example 20, (R)-1-(1-acryloylpyrrolidin-3-yl)-3-(4-phenoxyphenyl)-1H-pyrazole-4-carboxamide]",< 0.5
18,"C=CC(=O)N1CCN(c2ccc(C(N)=O)c(-c3ccc(Oc4ccc(F)cc4)cc3)n2)CC1 [Example 37, 6-(4-acryloylpiperazin-1-yl)-2-(4-(4-fluorophenoxy)phenyl)nicotinamide]",< 0.5
19,"NC(=O)c1ccc(N2CCNCC2)nc1-c1ccc(Oc2ccccc2)cc1 [Example 4, 2-(4-phenoxyphenyl)-6-(piperazin-1-yl)nicotinamide]",≥ 1
20,"CN(C)C/C=C/C(=O)N1CCN(c2ccc(C(N)=O)c(-c3ccc(Oc4ccccc4)cc3)n2)CC1 [Example 25, (E)-6-(4-(4-(dimethylamino)but-2-enoyl)piperazin-1-yl)-2-(4-phenoxyphenyl)nicotinamide]",< 0.5
21,"C=CC(=O)Nc1ccc(-n2cc(C(N)=O)c(-c3ccc(Oc4ccccc4)cc3)n2)cc1 [Example 16, 1-(4-acrylamidophenyl)-3-(4-phenoxyphenyl)-1H-pyrazole-4-carboxamide]",< 0.5
22,"C=CC(=O)N1CCCC(c2nc(-c3ccc(Oc4ccccc4)cc3)c(C(N)=O)s2)C1 (stereo not shown) [Example 40, 2-(1-acryloylpiperidin-3-yl)-4-(4-phenoxyphenyl)thiazole-5-carboxamide]",< 0.5
23,"C=CC(=O)N1CCCC(c2nc(C(N)=O)c(-c3ccc(Oc4ccccc4)cc3)o2)C1 (stereo not shown) [Example 54, 2-(1-acryloylpiperidin-3-yl)-5-(4-phenoxyphenyl)oxazole-4-carboxamide]",< 0.5
24,"C=CC(=O)N1CCN(c2ccc(C(N)=O)c(-c3ccc(Oc4ccccc4F)cc3)n2)CC1 [Example 38, 6-(4-acryloylpiperazin-1-yl)-2-(4-(2-fluorophenoxy)phenyl)nicotinamide]",< 0.5

# Second part, the compound after the results:
row,IC50 [µM],Compound
1,< 0.5,"C=CC(=O)N1CCC(c2nc(-c3ccc(Oc4ccccc4)cc3)c(C(N)=O)s2)CC1 [Example 52, 2-(1-acryloylpiperidin-4-yl)-4-(4-phenoxyphenyl)thiazole-5-carboxamide]"
2,< 0.5,"C=CC(=O)N1CCC(c2nc(-c3ccc(Oc4ccccc4)cc3)c(C(N)=O)s2)C1 (stereo not shown) [Example 41, 2-(1-acryloylpyrrolidin-3-yl)-4-(4-phenoxyphenyl)thiazole-5-carboxamide]"
3,< 0.5,"C=CC(=O)N1CCC(c2nc(C(N)=O)c(-c3ccc(Oc4ccccc4)cc3)o2)C1 (stereo not shown) [Example 48, 2-(1-acryloylpyrrolidin-3-yl)-5-(4-phenoxyphenyl)oxazole-4-carboxamide]"
4,< 0.5,"C=CC(=O)NC1CCN(c2ccc(C(N)=O)c(-c3ccc(Oc4ccccc4)cc3)n2)C1 (stereo not shown) [Example 10, 6-(3-acrylamidopyrrolidin-1-yl)-2-(4-phenoxyphenyl)nicotinamide]"
5,< 0.5,"C=CC(=O)N1CCN(c2ccc(C(N)=O)c(-c3ccc(OC4CCC(F)(F)CC4)cc3)n2)CC1 [Example 60, 6-(4-acryloylpiperazin-1-yl)-2-(4-((4,4-difluorocyclohexyl)oxy)phenyl)nicotinamide]"
6,< 0.5,"C=CC(=O)N1CCC(c2ccc(C(N)=O)c(-c3ccc(Oc4ccccc4)cc3)c2)CC1 [Example 55, 5-(1-acryloylpiperidin-4-yl)-4′-phenoxybiphenyl-2-carboxamide]"
7,≥ 1,"N#CCC(=O)N1CC(n2cc(C(N)=O)c(-c3ccc(Oc4ccccc4)cc3)n2)C1 [Example 50, 1-(1-(2-cyanoacetyl)azetidin-3-yl)-3-(4-phenoxyphenyl)-1H-pyrazole-4-carboxamide]"
8,≥ 1,"C=CC(=O)N1CCN(c2ccc(C(N)=O)c(-c3ccc(Oc4ccc(C#N)cc4)cc3)n2)CC1 [Example 27, 6-(4-acryloylpiperazin-1-yl)-2-(4-(4-cyanophenoxy)phenyl)nicotinamide]"
9,< 0.5,"C=CC(=O)N1CCN(c2nc(-c3ccc(Oc4ccccc4)cc3)c(C(N)=O)s2)CC1 [Example 51, 2-(4-acryloylpiperazin-1-yl)-4-(4-phenoxyphenyl)thiazole-5-carboxamide]"
10,< 0.5,"C=CC(=O)N1CCN(c2ccc(C(N)=O)c(-c3ccc(Oc4ccccc4)c(F)c3)n2)CC1 [Example 36, 6-(4-acryloylpiperazin-1-yl)-2-(3-fluoro-4-phenoxyphenyl)nicotinamide]"
11,< 0.5,"C=CC(=O)N1CC(n2cc(C(N)=O)c(-c3ccc(Oc4ccccc4)cc3)n2)C1 [Example 15, 1-(1-acryloylazetidin-3-yl)-3-(4-phenoxyphenyl)-1H-pyrazole-4-carboxamide]"
12,≥ 1,"NC(=O)c1cn(C2CNC2)nc1-c1ccc(Oc2ccccc2)cc1 [Example 14, 1-(azetidin-3-yl)-3-(4-phenoxyphenyl)-1H-pyrazole-4-carboxamide]"
13,0.5 to 1,"C=CC(=O)N1CCN(c2ccc(C(N)=O)c(-c3ccc(Oc4ccccc4)nc3)n2)CC1 [Example 31, 6-(4-acryloylpiperazin-1-yl)-6′-phenoxy-2,3′-bipyridine-3-carboxamide]"
